The record followed here is ChEMBL document CHEMBL1152299, “Indazole-based liver X receptor (LXR) modulators with maintained atherosclerotic lesion reduction activity but diminished stimulation of hepatic triglyceride synthesis” (J Med Chem, 2008).

In series [1] the target is T1, Oxysterols receptor LXR-beta (Homo sapiens, UniProt P55055).
T1 sequence (P55055 whole entry): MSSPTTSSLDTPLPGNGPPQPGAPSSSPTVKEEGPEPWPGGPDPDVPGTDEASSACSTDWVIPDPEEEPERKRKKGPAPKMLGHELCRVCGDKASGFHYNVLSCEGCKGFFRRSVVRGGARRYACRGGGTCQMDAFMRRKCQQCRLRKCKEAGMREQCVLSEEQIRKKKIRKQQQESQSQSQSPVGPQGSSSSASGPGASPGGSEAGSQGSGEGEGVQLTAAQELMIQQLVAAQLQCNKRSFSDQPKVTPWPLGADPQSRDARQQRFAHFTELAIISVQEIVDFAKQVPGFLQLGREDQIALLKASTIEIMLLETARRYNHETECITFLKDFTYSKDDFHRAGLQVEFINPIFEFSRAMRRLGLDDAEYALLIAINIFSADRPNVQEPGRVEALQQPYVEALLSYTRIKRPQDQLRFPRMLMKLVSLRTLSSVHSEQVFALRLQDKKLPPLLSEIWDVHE
Kind of series: Agonist activity at human recombinant LXRbeta ligand binding domain in human HuH7 cells co-transfected with fused Gal4-DBD by transactivation assay. Format: cell-based, Huh-7.

The target of series [2] is T2, Oxysterols receptor LXR-alpha (Homo sapiens, UniProt Q13133).
Series [3] addresses T1, Oxysterols receptor LXR-beta.
Series [4] relates to THP-1. Kind of series: Stimulation of [3H]cholesterol efflux in human THP1 foam cells loaded with ac-LDL. Format: functional, cell-based.
Series [5] deals with Mus musculus. Kind of series: Decrease in total cholesterol level in LDL receptor knockout C57BL/6 mouse plasma at 10 mg/kg administered with Western diet after 8 weeks. Also on record: scale not given: the % may be the effect or the level left. Format: functional.
The subject of series [6] is THP-1. Kind of series: Stimulation of [3H]cholesterol efflux in human THP1 foam cells loaded with ac-LDL relative to TO901317. Format: functional.
For series [7], the system named is HepG2. The series can be described thus: Effect on SREBP1c gene expression in human HepG2 cells. The class given is functional, cell-based.
In series [8] the test system is HepG2. The series can be described thus: Effect on triglyceride accumulation in human HepG2 cells. The class given is functional, cell-based.
In series [9] the test system is THP-1. Kind of series: Effect on ABCA1 gene expression in human differentiated THP1 cells relative to TO901317. The class given is functional.
Series [10] concerns Mus musculus. Kind of series: Upregulation of ABCA1 gene expression in LDL receptor knockout C57BL/6 mouse duodenum at 10 mg/kg administered with Western diet. Format: functional. The note with it: route oral.
Series [11] deals with Mus musculus. The series can be described thus: Reduction in atherosclerotic lesion size in LDL receptor knockout C57BL/6 mouse thoracic aorta at 10 mg/kg administered with Western diet after 8 weeks by oil Red-O staining. Format: functional. On the set-up: scale not given: the % may be the effect or the level left.
Series [12] addresses T2, Oxysterols receptor LXR-alpha. The source holds these as a separate data set.
Series [13] deals with HepG2. The series can be described thus: Effect on triglyceride accumulation in human HepG2 cells relative to TO901317. Format: functional.
Series [14] deals with HepG2. Kind of series: Effect on SREBP1c gene expression in human HepG2 cells relative to TO901317. The class given is functional.
Series [15] relates to THP-1. The series can be described thus: Effect on ABCA1 gene expression in human differentiated THP1 cells. Format: functional, cell-based.
In series [16] the test system is Mus musculus. The series can be described thus: Increase in CYP7A1 gene expression in LDL receptor knockout C57BL/6 mouse liver at 10 mg/kg administered with Western diet. The class given is functional.
For series [17], the system named is Syrian golden hamster. Kind of series: Induction of FAS gene expression in golden Syrian hamster liver at 3 mg/kg administered with chow diet for 7 days measured after 2 hrs of final dose by real time PCR. Format: functional, Mesocricetus auratus. In general terms: In qPCR the cycle at which signal appears reflects the starting amount.
In series [18] the test system is Syrian golden hamster. The series can be described thus: Effect on triglyceride level in golden Syrian hamster plasma at 3 mg/kg administered with chow diet for 7 days measured after 2 hrs of final dose. Format: functional, Mesocricetus auratus.
Series [19] in a line: AUC (0 to infinity) in C57 mouse at 1 mg/kg, iv and 10 mg/kg, po. The class given is ADME, organism-based. Particulars: plasma.
The nature of series [20]: Bioavailability in C57 mouse at 1 mg/kg, iv and 10 mg/kg, po. Format: ADME, organism-based. Particulars: in vivo.
The nature of series [21]: Tmax in C57 mouse at 1 mg/kg, iv and 10 mg/kg, po. The class given is ADME, organism-based. Particulars: in vivo.
Series [22] is described as follows: Clearance in C57 mouse at 1 mg/kg, iv and 10 mg/kg, po. Format: ADME, organism-based. Particulars: in vivo.
Series [23] can be described thus: Volume of distribution at steady state in C57 mouse at 1 mg/kg, iv and 10 mg/kg, po. The class given is ADME, organism-based. The note with it: in vivo, read-out: Vdss.
The nature of series [24]: Half life in C57 mouse at 1 mg/kg, iv. Format: ADME, organism-based. Also on record: dose 1 mg/kg, route intravenous. Particulars: in vivo.
A short description of series [25]: Cmax in male C57 mice after 10 mg/kg oral dose. Format: ADME, organism-based. On the set-up: dose 10 mg/kg, route oral. Particulars: C57, mouse, in vivo.
The nature of series [26]: Terminal half life in C57 mouse at 10 mg/kg, po. Format: ADME, organism-based. Also on record: dose 10 mg/kg, route oral. The note with it: in vivo, read-out: beta t1/2 (converted).

Usually pEC50 stands for −log10 of the EC50, conventionally taken in molar units. The term pIC50 denotes −log10 of the IC50, conventionally taken in molar units. A word on the AUC(0-inf): it is total exposure, with the tail of the curve extrapolated. Broadly, the bioavailability is dose-corrected exposure relative to a reference, in per cent. As a reminder, the Tmax is the time at which the peak concentration occurs. As a reminder, the Cmax is the maximum level reached in the sampled fluid or tissue.

SMILES strings stand for the structures. pEC50, pIC50: −log10 of the molar value.

As to `O=C(O)Cc1ccc(CNc2cccc(-c3c(Cc4ccccc4)cnc4c(C(F)(F)F)cccc34)c2)cc1`, the negative-log EC50 (pEC50) in series [1] is 7.05. For the same compound, the results for the pIC50 in series [2] and in [3] were 8.10 and 8.70, respectively.
As for `O=C(O)Cc1cccc(OCCCN(Cc2cccc(C(F)(F)F)c2Cl)CC(c2ccccc2)c2ccccc2)c1`, the pEC50 in series [1] is 6.51; in series [4], 7.51; in series [7], 6.68; in series [8], 5.70; in series [12], 6.18; in series [15] it was 6.36. The figures for the Activity in series [5] and in series [11] were 17% and 40%, respectively. Further, the Efficacy in [6] is 84%; in [9] it was 178%; in series [13] it was 45%; in [14] it was 137%. Moreover, the “fold change (FC)” value in [10] worked out at 6.9; in [16], 1.9.
For the compound `O=S(=O)(c1ccccc1)N(CC(F)(F)F)c1ccc(C(O)(C(F)(F)F)C(F)(F)F)cc1` [T091317], the results for the pEC50 in series [4] and in series [7] were 8.52 and 7.21, respectively. In addition, the Efficacy in [6], in series [9], in series [13] and in [14] was 100% throughout.
On to `O=C(O)Cc1ccc(COc2cccc(-c3c(Cc4ccccc4)cnc4c(C(F)(F)F)cccc34)c2)cc1`, for which the values for the pEC50 in series [4], in series [7] and in [8] were 8.22, 6.92 and 6.65, respectively. For the same compound, the Activity is listed as 20% in [5], 38% in [11] and 25% in series [18]. Moreover, the Efficacy in [6] came out at 88%; in series [9], 155%; in [13] it was 85%; in series [14], 96%. Also, in series [17], the “fold change (FC)” value was found to be 4.
With `FC(F)(F)c1cccc2c(-c3ccccc3)n(Cc3ccccc3)nc12`, in series [19], the AUC(0-inf) amounted to 321 ng·h/mL. In series [20], this compound showed a bioavailability of 16%. The Tmax in series [21] was determined as 15 min. The compound further yielded a clearance in [22] of 81 mL/min/kg. Also, the Vd in series [23] was determined as 5.2 L/kg. In addition, the half-life is 114 min in series [24] and 132 min in series [26]. For the same compound, the peak level in series [25] (Cmax) was 124 ng/mL.
